The assay relates to methicillin sensitive S. aureus (strain MN8). The experiment in a line: Murine lethal septicemia model in immuno-competent mice. The class given is in vivo. The note with it: Vancomycin 30 mg/kg. The method, then: Differences in viable bacterial counts between control and drug-treated groups were analyzed by 1-way ANOVA followed by Dunnett's adjustment for multiplicity. For lethal septicemia, differences in survival between control and drug-treated groups were performed using a Log Rank test followed by a Bonferroni-Holm's adjustment for multiplicity

The text below walks through data of patent US20150210755A1, “ANTI-POLY-N-ACETYL GLUCOSAMINE (PNAG) MONOCLONAL ANTIBODY AND USES THEREOF FOR THE PREVENTION OR TREATMENT OF PNAG EXPRESSING BACTERIAL INFECTION” (SANOFI, priority 2012, published 2015).

With `CN[C@H](CC(C)C)C(=O)N[C@H]1C(=O)N[C@@H](CC(N)=O)C(=O)N[C@H]2C(=O)N[C@H]3C(=O)N[C@H](C(=O)N[C@H](C(=O)O)c4cc(O)cc(O)c4-c4cc3ccc4O)[C@H](O)c3ccc(c(Cl)c3)Oc3cc2cc(c3O[C@@H]2O[C@H](CO)[C@@H](O)[C@H](O)[C@H]2O[C@H]2C[C@](C)(N)[C@H](O)[C@H](C)O2)Oc2ccc(cc2Cl)[C@H]1O` [Vancomycin], the “% Survival (96 h post-infection)” value is given as 100%.
